# Biological target: T1, Aβ1-40 peptide monomer (Homo sapiens, UniProt P05067)
# T1 construct: An Aβ1-40 peptide monomer stock solution was prepared
# Experiment: Inhibition of the seed-triggered aggregation of Aβ1-40 peptide monomer (HPLC quantitation of residual monomer)
# Format: biochemical
# Settings: 50 μm test compound; 20 μM Aβ1-40 monomer; 4 μm pre-formed sonicated Aβ1-40 fibrils (seed); phosphate buffer pH 7.4, 150 mM NaCl; two hours at 37° C.
# Method: The compounds disclosed in the present invention interfere with the aggregation of monomeric Aβ1-40 peptide stimulated by a seed of Aβ1-40 amyloid fibrils. The activity of the compounds was assessed according to the procedure reported below.
# An Aβ1-40 peptide monomer stock solution was prepared by dissolving the peptide in dimethylsulfoxide at a concentration of 33.33 mg/ml. The stock solution was further diluted 11.5 times with dimethylsulfoxide. This solution was then diluted with 10 mM phosphate buffer pH 7.4 containing 150 mM sodium chloride to prepare the test solution.
# To an eppendorf tube containing 47 μl of Aβ1-40 peptide monomer solution were added 3 μl of a 830 μM water solution of the test compound containing 66.4 μM, based on the Aβ1-40 monomer content, of pre-formed sonicated Aβ1-40 fibrils: the resulting solution was 20 μM in Aβ1-40 monomer, 50 μm in the test compound and contained 4 μm, based on the Aβ1-40 monomer content, of pre-formed sonicated Aβ1-40 fibrils. The aggregation was allowed to proceed for two hours at 37° C. The suspension was then centrifuged at 15000 rpm for 15 minutes at +4° C., the supernatant was collected and the Aβ1-40 monomer was quantitated by HPLC.
# The activity is expressed as the percent of inhibition of the aggregation of a 20 μM Aβ1-40 monomer solution stimulated by 4 μm, based on the Aβ1-40 monomer content, pre-formed sonicated Aβ1-40 fibrils.
# T1 sequence (P05067 672-711 limits assumed): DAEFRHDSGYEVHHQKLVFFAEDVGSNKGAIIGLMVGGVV
row,SMILES,% INHIBITION of the aggregation of Aβ1-40 monomer
1,"COc1cccc2c1C(=O)c1c(O)c3c(c(O)c1C2=O)C[C@@](O)(c1csc(N2CCN(C)CC2)n1)C[C@@H]3N1CCOCC1 [Compound 1j, 7-Deoxy-7-(4-morpholinyl)-9-deacetyl-9-[2-(4-methyl-perazin-1-yl)-thiazol-4-yl]-daunomycinone]",49.2%
2,"COc1cccc2c1C(=O)c1c(O)c3c(c(O)c1C2=O)C[C@@](O)(c1csc(NCCN(C)C)n1)C[C@@H]3O [Compound 1d, 9-Deacetyl-9-[2-(2-dimethylaminoethylamino)-thiazol-4-yl]-daunomycinone]",33.7%
3,"COc1cccc2c1C(=O)c1c(O)c3c(c(O)c1C2=O)C[C@@](O)(c1csc(N2CCN(C)CC2)n1)CC3 [Compound 1i, 7-Deoxy-9-deacetyl-9-[2-(4-methyl-piperazin-1-yl)-thiazol-4-yl]-daunomycinone]",31.7%

# From patent US6316451A, “Heterocyclyl anthracyclinone derivatives” (Pharmacia & Upjohn S.p.A., priority 1998, dated 2001)
